Data: ChEMBL document CHEMBL1201862, “PubChem BioAssay data set” (2004)
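Method: 48-hour compound exposure of cells in 96-well plates, five concentrations, linear interpolation of endpoints. GI50: concentration for 50% inhibition of growth.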 Activity calls are given as the source filed them. Rule as the data show it: active = GI50 up to about 1.1 µM and inactive = higher.

How the values were obtained:
Assay in all cases: growth of human tumour cells (NCI), 48 h
COLO 205 = test system: COLO 205
IGROV-1 = test system: IGROV-1
SK-MEL-28 = test system: SK-MEL-28
HOP-92 = test system: HOP-92
SF-539 = test system: SF-539
A549 = test system: A549
MOLT-4 = test system: MOLT-4
HL-60 = test system: HL-60
KM-20L2 = test system: KM-20L2
XF498 = test system: XF498
SF-295 = test system: SF-295
EKVX = test system: EKVX
SK-MEL-2 = test system: SK-MEL-2
OVCAR-8 = test system: OVCAR-8
OVCAR-4 = test system: OVCAR-4
DLD-1 = test system: DLD-1
HOP-62 = test system: HOP-62
OVCAR-5 = test system: OVCAR-5
M19-MEL = test system: M19-MEL
NCI-H23 = test system: NCI-H23
HCT-15 = test system: HCT-15
MCF7 = test system: MCF7
SK-MEL-5 = test system: SK-MEL-5
HCC 2998 = test system: HCC 2998
NCI-H460 = test system: NCI-H460
SF-268 = test system: SF-268
Malme-3M = test system: Malme-3M
LOX IMVI = test system: LOX IMVI
HOP-18 = test system: HOP-18
UO-31 = test system: UO-31
SNB-75 = test system: SNB-75
UACC-257 = test system: UACC-257
NCI-H522 = test system: NCI-H522
DMS-273 = test system: DMS-273
NCI/ADR-RES = test system: NCI/ADR-RES
CCRF-CEM = test system: CCRF-CEM
SN12C = test system: SN12C
CAKI-1 = test system: CAKI-1
HCT-116 = test system: HCT-116
SNB-78 = test system: SNB-78
RXF 393 = test system: RXF 393
UACC-62 = test system: UACC-62
SNB-19 = test system: SNB-19
KM12 = test system: KM12
K562 = test system: K562
SK-OV-3 = test system: SK-OV-3
DMS-114 = test system: DMS-114
SW-620 = test system: SW-620
OVCAR-3 = test system: OVCAR-3
U-251 = test system: U-251
A498 = test system: A498
HT-29 = test system: HT-29
NCI-H226 = test system: NCI-H226
M14 = test system: M14
LXFL 529 = test system: LXFL 529
SR = test system: SR
RPMI-8226 = test system: RPMI-8226
ACHN = test system: ACHN
TK-10 = test system: TK-10
786-0 = test system: 786-0

In the case of `c1ccc2c3c(ccc2c1)-c1[nH]ncc1CCO3`, the GI50 (COLO 205) is reported as 37.2 µM (inactive), the GI50 (IGROV-1) is reported as > 52 µM (inactive) and the GI50 (SK-MEL-28) is reported as 50.8 µM (inactive). The GI50 (HOP-92) was 27.5 µM (inactive), the GI50 (SF-539) was 25 µM (inactive) and the GI50 (A549) was 37 µM (inactive). The GI50 (MOLT-4) was 20.1 µM (inactive), the GI50 (HL-60) was 14.6 µM (inactive) and the GI50 (KM-20L2) was 34.5 µM (inactive). The GI50 (XF498) was 32.4 µM (inactive), the GI50 (SF-295) was 28.4 µM (inactive) and the GI50 (EKVX) was 13.6 µM (inactive). The GI50 (SK-MEL-2) was 36.1 µM (inactive), the GI50 (OVCAR-8) was 34.4 µM (inactive) and the GI50 (OVCAR-4) was 29.7 µM (inactive). For the same molecule, the GI50 (DLD-1) was 34.8 µM (inactive), the GI50 (HOP-62) was 30.6 µM (inactive) and the GI50 (OVCAR-5) was 25.8 µM (inactive). The GI50 (M19-MEL) was 34 µM (inactive), the GI50 (NCI-H23) was 25.2 µM (inactive) and the GI50 (HCT-15) was 20.5 µM. The GI50 (MCF7) was 32.9 µM (inactive), the GI50 (SK-MEL-5) was > 46.9 µM (inactive) and the GI50 (HCC 2998) was 35.6 µM (inactive). The GI50 (NCI-H460) was 25.6 µM (inactive), the GI50 (SF-268) was 37.8 µM (inactive) and the GI50 (Malme-3M) was 45.7 µM (inactive). For the same molecule, the GI50 (LOX IMVI) was 33.1 µM (inactive), the GI50 (HOP-18) was 61.4 µM (inactive) and the GI50 (UO-31) was 25.6 µM (inactive). The GI50 (SNB-75) was 27.5 µM (inactive), the GI50 (UACC-257) was 27.7 µM (inactive) and the GI50 (NCI-H522) was 21.8 µM (inactive). The GI50 (DMS-273) was 40.5 µM (inactive), the GI50 (NCI/ADR-RES) was 38.2 µM (inactive) and the GI50 (CCRF-CEM) was 32 µM (inactive). The GI50 (SN12C) was 29.2 µM (inactive), the GI50 (CAKI-1) was 33.4 µM (inactive) and the GI50 (HCT-116) was 32.4 µM (inactive). The GI50 (SNB-78) was 29.2 µM (inactive), the GI50 (RXF 393) was 33.3 µM (inactive) and the GI50 (UACC-62) was 29.9 µM (inactive). For the same molecule, the GI50 (SNB-19) was 47.1 µM (inactive), the GI50 (KM12) was 37.2 µM (inactive) and the GI50 (K562) was 32.8 µM (inactive). For the same molecule, the GI50 (SK-OV-3) was 35.8 µM (inactive), the GI50 (DMS-114) was 32.7 µM (inactive) and the GI50 (SW-620) was 37.8 µM (inactive). The GI50 (OVCAR-3) was 27.7 µM (inactive), the GI50 (U-251) was 18.4 µM (inactive) and the GI50 (A498) was > 56 µM (inactive). The GI50 (HT-29) was 32.5 µM (inactive).
For `O=C(c1ccccc1)c1nc2ccc(Cl)cc2c2c1CCCO2`, the GI50 (NCI-H226) was > 100 µM (inactive), the GI50 (COLO 205) was > 100 µM (inactive) and the GI50 (IGROV-1) was > 100 µM (inactive). For the same molecule, the GI50 (SK-MEL-28) was 33.7 µM (inactive), the GI50 (MOLT-4) was > 100 µM (inactive) and the GI50 (KM-20L2) was > 100 µM (inactive). The GI50 (XF498) was 65.9 µM (inactive), the GI50 (SF-295) was 50 µM (inactive) and the GI50 (EKVX) was > 100 µM (inactive). For the same molecule, the GI50 (SK-MEL-2) was > 100 µM (inactive), the GI50 (OVCAR-8) was > 100 µM (inactive) and the GI50 (OVCAR-4) was > 100 µM (inactive). For the same molecule, the GI50 (M14) was > 100 µM (inactive), the GI50 (HOP-62) was > 100 µM (inactive) and the GI50 (OVCAR-5) was > 100 µM (inactive). For the same molecule, the GI50 (M19-MEL) was > 100 µM (inactive), the GI50 (NCI-H23) was 72.8 µM (inactive) and the GI50 (HCT-15) was > 100 µM. The GI50 (HCC 2998) was > 100 µM (inactive), the GI50 (NCI-H460) was > 100 µM (inactive) and the GI50 (LXFL 529) was > 100 µM (inactive). For the same molecule, the GI50 (SF-268) was > 100 µM (inactive), the GI50 (Malme-3M) was > 100 µM (inactive) and the GI50 (LOX IMVI) was > 100 µM (inactive). For the same molecule, the GI50 (HOP-18) was > 100 µM (inactive), the GI50 (UO-31) was > 100 µM (inactive) and the GI50 (NCI-H522) was > 100 µM (inactive). The GI50 (DMS-273) was > 100 µM (inactive), the GI50 (SR) was > 100 µM (inactive) and the GI50 (SN12C) was > 100 µM (inactive). For the same molecule, the GI50 (CAKI-1) was > 100 µM (inactive), the GI50 (HCT-116) was > 100 µM (inactive) and the GI50 (SNB-78) was > 100 µM (inactive). For the same molecule, the GI50 (RPMI-8226) was > 100 µM (inactive), the GI50 (RXF 393) was 56.2 µM (inactive) and the GI50 (UACC-62) was > 100 µM (inactive). The GI50 (ACHN) was > 100 µM (inactive), the GI50 (SNB-19) was > 100 µM (inactive) and the GI50 (KM12) was > 100 µM (inactive). For the same molecule, the GI50 (K562) was > 100 µM (inactive), the GI50 (DMS-114) was > 100 µM (inactive) and the GI50 (TK-10) was > 100 µM (inactive). For the same molecule, the GI50 (SW-620) was > 100 µM (inactive), the GI50 (OVCAR-3) was > 100 µM (inactive) and the GI50 (U-251) was > 100 µM (inactive). For the same molecule, the GI50 (HT-29) was > 100 µM (inactive).
With `CN(C)CC/C(=N\Nc1ccccc1)c1ccccc1` the GI50 (COLO 205) was 17.6 µM (inactive), the GI50 (IGROV-1) was 29.4 µM (inactive) and the GI50 (SK-MEL-28) was > 10 µM (inactive). The GI50 (HOP-92) was 11.1 µM (inactive), the GI50 (SF-539) was 15.8 µM (inactive) and the GI50 (A549) was 45 µM (inactive). For the same molecule, the GI50 (MOLT-4) was 2.83 µM (inactive), the GI50 (XF498) was 3.89 µM (inactive) and the GI50 (SF-295) was 2.56 µM (inactive). The GI50 (EKVX) was 15.7 µM (inactive), the GI50 (SK-MEL-2) was 9.16 µM (inactive) and the GI50 (OVCAR-8) was 4.35 µM (inactive). The GI50 (OVCAR-4) was 3.25 µM (inactive), the GI50 (DLD-1) was 69.2 µM (inactive) and the GI50 (M14) was 2 µM (inactive). For the same molecule, the GI50 (HOP-62) was 13.4 µM (inactive), the GI50 (OVCAR-5) was 14.4 µM (inactive) and the GI50 (M19-MEL) was 25.2 µM (inactive). The GI50 (NCI-H23) was 23 µM (inactive), the GI50 (HCT-15) was 2.88 µM and the GI50 (SK-MEL-5) was 17.7 µM (inactive). For the same molecule, the GI50 (HCC 2998) was 12.2 µM (inactive), the GI50 (SF-268) was 8.13 µM (inactive) and the GI50 (Malme-3M) was 4.78 µM (inactive). The GI50 (HOP-18) was 31 µM (inactive), the GI50 (UO-31) was 6.85 µM (inactive) and the GI50 (SR) was 47.8 µM (inactive). For the same molecule, the GI50 (CAKI-1) was 3.18 µM (inactive), the GI50 (HCT-116) was 12.2 µM (inactive) and the GI50 (SNB-78) was 11.8 µM (inactive). The GI50 (RPMI-8226) was 43.7 µM (inactive), the GI50 (RXF 393) was 31.2 µM (inactive) and the GI50 (UACC-62) was > 100 µM (inactive). The GI50 (SNB-19) was 40.9 µM (inactive), the GI50 (KM12) was 1.57 µM (inactive) and the GI50 (K562) was 2.48 µM (inactive). The GI50 (SK-OV-3) was 15.3 µM (inactive), the GI50 (DMS-114) was 15.6 µM (inactive) and the GI50 (TK-10) was 14.3 µM (inactive). For the same molecule, the GI50 (786-0) was 23 µM (inactive), the GI50 (OVCAR-3) was 13.9 µM (inactive) and the GI50 (U-251) was 27.4 µM (inactive). The GI50 (HT-29) was 2.13 µM (inactive).
